25 compounds from US20240343704A1, “HALO-SUBSTITUTED AMINO PYRIDINE COMPOUNDS AS INHIBITORS OF THE HAEMATOPOIETIC PROGENITOR KINASE 1 (HPK1)” (priority 2021, published 2024) can be followed below.

Each structure is given as a SMILES string. Bounds are passed on as bounds.

Test [1] addresses T1, Recombinant (1-346) HPK1 (h) (Homo sapiens, UniProt Q92918).
T1 construct: Recombinant (1-346) HPK1 (h) is incubated with 8 mM MOPS pH 7.0
T1 sequence (Q92918 1-346): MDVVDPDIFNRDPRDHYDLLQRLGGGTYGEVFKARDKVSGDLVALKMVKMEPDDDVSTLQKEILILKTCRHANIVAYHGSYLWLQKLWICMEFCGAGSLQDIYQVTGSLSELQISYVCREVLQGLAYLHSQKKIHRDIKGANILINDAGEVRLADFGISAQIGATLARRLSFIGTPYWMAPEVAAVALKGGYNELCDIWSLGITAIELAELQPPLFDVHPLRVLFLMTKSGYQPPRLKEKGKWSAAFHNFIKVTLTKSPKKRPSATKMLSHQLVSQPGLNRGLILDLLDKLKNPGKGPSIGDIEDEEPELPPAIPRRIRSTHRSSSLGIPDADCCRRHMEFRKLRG
The test can be described thus: HPK1 Human STE Kinase Enzymatic Radiometric Assay. Format: biochemical. As to conditions: read-out: HPK1 IC50 nM Range*. The procedure: A stock solution of 10 mM of test compound is prepared in DMSO. The compound plate was prepared by 3-fold and 9-point serial dilutions. […] The reaction is initiated by The addition of the Mg/ATP mix. After incubation for 40 minutes at RT, the reaction is stopped by the addition of phosphoric acid to a concentration of 0.5%.

For the next test, the target named is Lck (h) (Homo sapiens, UniProt P06239). Kind of test: Lck Human  Kinase Enzymatic Radiometric Assay. As to conditions: read-out: Lck IC50 nM Range*. Format: biochemical. Put shortly: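 Substrate 33P-incorporation measured by scintillation counting after spotting on P30 filtermat and phosphoric acid washes. Human Lck reacted 40 min at RT in 50 mM Tris pH 7.5 with 10 mM MgAcetate, [gamma-33P]-ATP, 250 uM Cdc2 peptide, 0.1 mM EGTA and 0.1 mM Na3VO4.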
Lck (h), sequence (P06239 whole entry): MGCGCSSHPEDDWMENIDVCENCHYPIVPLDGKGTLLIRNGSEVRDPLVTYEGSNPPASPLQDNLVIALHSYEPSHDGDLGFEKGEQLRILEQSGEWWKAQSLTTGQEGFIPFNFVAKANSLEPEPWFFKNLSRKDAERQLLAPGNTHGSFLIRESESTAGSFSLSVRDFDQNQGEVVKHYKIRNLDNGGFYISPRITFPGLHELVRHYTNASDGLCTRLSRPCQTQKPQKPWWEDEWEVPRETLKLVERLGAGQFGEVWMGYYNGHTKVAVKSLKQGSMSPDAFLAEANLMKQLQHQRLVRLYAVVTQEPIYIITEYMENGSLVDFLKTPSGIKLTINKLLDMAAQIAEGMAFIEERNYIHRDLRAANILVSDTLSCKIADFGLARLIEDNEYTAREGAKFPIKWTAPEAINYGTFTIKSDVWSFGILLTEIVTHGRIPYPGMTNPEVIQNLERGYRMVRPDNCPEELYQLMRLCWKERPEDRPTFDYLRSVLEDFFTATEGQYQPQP

Consider `CN1CCCN(c2ccc(-c3cc(-c4ccc5c(c4)CCNC5=O)c(N)nc3F)cc2)CC1` [I-277, 6-(2-amino-6-fluoro-5-(4-(4-methyl-1,4-diazepan-1-yl)phenyl)pyridin-3-yl)-3,4-dihydroisoquinolin-1(2H)-one], for which the IC50 is 0.1 to 10 nM in test [1] and more than 1000 nM on Lck (h).

Regarding `CC(C)N1CCN(c2ccc(-c3cc(-c4ccc5c(c4)CCNC5=O)c(N)nc3F)cc2)CC1C` (centres unmarked) [I-278, 6-(2-amino-6-fluoro-5-(4-(4-isopropyl-3-methylpiperazin-1-yl)phenyl)pyridin-3-yl)-3,4-dihydroisoquinolin-1(2H)-one], the IC50 in test [1] is 0.1 to 10 nM; at Lck (h) it was more than 1000 nM.

With `CC(C)N1CCCN(c2ccc(-c3cc(-c4ccc5c(c4)CCNC5=O)c(N)nc3F)cc2)CC1` [I-279, 6-(2-amino-6-fluoro-5-(4-(4-isopropyl-1,4-diazepan-1-yl)phenyl)pyridin-3-yl)-3,4-dihydroisoquinolin-1(2H)-one], the half-maximal inhibitory concentration (IC50) in test [1] is 0.1 to 10 nM; on Lck (h) it was more than 1000 nM.

On to `Nc1nc(F)c(-c2ccc(N3CCN4CCCC4C3)cc2)cc1-c1ccc2c(c1)CCNC2=O` (centres unmarked) [I-280, 6-(2-amino-6-fluoro-5-(4-(hexahydropyrrolo[1,2-a]pyrazin-2(1H)-yl)phenyl)pyridin-3-yl)-3,4-dihydroisoquinolin-1(2H)-one], for which the IC50 in test [1] is 0.1 to 10 nM; at Lck (h), more than 1000 nM.

In the case of `Nc1nc(F)c(-c2ccc(N3CCCN4CCCC4C3)cc2)cc1-c1ccc2c(c1)CCNC2=O` (centres unmarked) [I-281, 6-(2-amino-6-fluoro-5-(4-(hexahydro-1H-pyrrolo[1,2-a][1,4]diazepin-2(3H)-yl)phenyl)pyridin-3-yl)-3,4-dihydroisoquinolin-1(2H)-one], the 50% inhibitory concentration (IC50) in test [1] was 0.1 to 10 nM; on Lck (h), more than 1000 nM.

For `C[C@H]1CN(C)CCN1c1ccc(-c2cc(-c3ccc4c(c3)CCNC4=O)c(N)nc2F)cc1` [I-282, (S)-6-(2-amino-5-(4-(2,4-dimethylpiperazin-1-yl)phenyl)-6-fluoropyridin-3-yl)-3,4-dihydroisoquinolin-1(2H)-one], the results for the IC50 (in test [1]; at Lck (h)) were 0.1 to 10 nM and more than 1000 nM, respectively.

`CN(C)C1CCN(c2ccc(-c3cc(-c4ccc5c(c4)CCNC5=O)c(N)nc3F)cc2)CC1` [I-283, 6-(2-amino-5-(4-(4-(dimethylamino)piperidin-1-yl)phenyl)-6-fluoropyridin-3-yl)-3,4-dihydroisoquinolin-1(2H)-one]: the IC50 in test [1] is 0.1 to 10 nM; on Lck (h) it was more than 1000 nM.

Take `C[C@@H]1CN(c2ccc(-c3cc(-c4ccc5c(c4)CCNC5=O)c(N)nc3F)cc2)C[C@H](C)N1C(=O)OC(C)(C)C` [I-284, tert-butyl (2R,6S)-4-(4-(6-amino-2-fluoro-5-(1-oxo-1,2,3,4-tetrahydroisoquinolin-6-yl)pyridin-3-yl)phenyl)-2,6-dimethylpiperazine-1-carboxylate]: the IC50 in test [1] is 11 to 100 nM; at Lck (h) it was more than 1000 nM.

Turning to `CNCC1Cc2cc(-c3cc(-c4ccc(N5CCOCC5)cc4)c(F)nc3N)ccc2C(=O)N1` (centres unmarked) [I-285, 6-(2-amino-6-fluoro-5-(4-morpholinophenyl)pyridin-3-yl)-3-((methylamino)methyl)-3,4-dihydroisoquinolin-1(2H)-one], the results for the IC50 (in test [1]; at Lck (h)) were 11 to 100 nM and more than 1000 nM, respectively.

For `CNCC1Cc2cc(-c3cc(-c4ccc(N5CCN(C(C)C)CC5)cc4)c(F)nc3N)ccc2C(=O)N1` (centres unmarked) [I-286, 6-(2-amino-6-fluoro-5-(4-(4-isopropylpiperazin-1-yl)phenyl)pyridin-3-yl)-3-((methylamino)methyl)-3,4-dihydroisoquinolin-1(2H)-one], the IC50 in test [1] is 0.1 to 10 nM; at Lck (h) it was more than 1000 nM.

On to `Nc1nc(F)c(-c2ccc3c(c2)CCNC3)cc1-c1cc2c(cc1F)C(=O)NCC2` [I-287, 2,2,2-trifluoroacetate], for which the IC50 in test [1] is 0.1 to 10 nM; on Lck (h), more than 1000 nM.

On to `CC(C)N1CC(Oc2ccc(-c3cc(-c4ccc5c(c4)CCNC5=O)c(N)nc3F)cc2)C1` [I-288, 6-(2-amino-6-fluoro-5-(4-((1-isopropylazetidin-3-yl)oxy)phenyl)pyridin-3-yl)-3,4-dihydroisoquinolin-1(2H)-one], for which the half-inhibitory concentration (IC50) was 0.1 to 10 nM in test [1] and more than 1000 nM at Lck (h).

`N#Cc1cc(-c2cc(-c3cc4c(cc3F)C(=O)NCC4)c(N)nc2F)ccc1OC1CCNCC1` [I-289, 5-(6-amino-2-fluoro-5-(7-fluoro-1-oxo-1,2,3,4-tetrahydroisoquinolin-6-yl)pyridin-3-yl)-2-(piperidin-4-yloxy)benzonitrile]: the concentration for half-maximal inhibition (IC50) is 11 to 100 nM in test [1] and more than 1000 nM on Lck (h).

With `CC(=O)N1CCC(Oc2ccc(-c3cc(-c4ccc5c(c4)CCNC5=O)c(N)nc3F)cc2F)CC1` [I-290, 6-(5-(4-((1-acetylpiperidin-4-yl)oxy)-3-fluorophenyl)-2-amino-6-fluoropyridin-3-yl)-3,4-dihydroisoquinolin-1(2H)-one], the IC50 (in test [1]; at Lck (h)) was 0.1 to 10 nM throughout.

In the case of `CC(C)N1CCC(Oc2ccc(-c3cc(-c4cc5c(cc4F)C(=O)NCC5)c(N)nc3F)cc2C#N)CC1` [I-292, 5-(6-amino-2-fluoro-5-(7-fluoro-1-oxo-1,2,3,4-tetrahydroisoquinolin-6-yl)pyridin-3-yl)-2-((1-isopropylpiperidin-4-yl)oxy)benzonitrile], the IC50 in test [1] was 0.1 to 10 nM; at Lck (h) it was more than 1000 nM.

As to `N#Cc1cc(-c2cc(-c3cc4c(cc3F)C(=O)NCC4)c(N)nc2F)ccc1OC1CCN(CC(F)(F)F)CC1` [I-293, 5-(6-amino-2-fluoro-5-(7-fluoro-1-oxo-1,2,3,4-tetrahydroisoquinolin-6-yl)pyridin-3-yl)-2-((1-(2,2,2-trifluoroethyl)piperidin-4-yl)oxy)benzonitrile], the values for the IC50 (in test [1]; at Lck (h)) were 11 to 100 nM and more than 1000 nM, respectively.

As for `COC1(c2ccc(-c3cc(-c4ccc5c(c4)CCNC5=O)c(N)nc3F)cc2)CCN(C(C)C)CC1` [I-294, 6-(2-amino-6-fluoro-5-(4-(1-isopropyl-4-methoxypiperidin-4-yl)phenyl)pyridin-3-yl)-3,4-dihydroisoquinolin-1(2H)-one], the IC50 was 0.1 to 10 nM in test [1] and more than 1000 nM on Lck (h).

Take `CC(C)N1CC=C(c2ccc(-c3cc(-c4cc5c(cc4F)C(=O)NCC5)c(N)nc3F)cc2)CC1` [I-295, 6-(2-amino-6-fluoro-5-(4-(1-isopropyl-1,2,3,6-tetrahydropyridin-4-yl)phenyl)pyridin-3-yl)-7-fluoro-3,4-dihydroisoquinolin-1(2H)-one]: the IC50 in test [1] is 0.1 to 10 nM; on Lck (h) it was more than 1000 nM.

Take `CCN1CC=C(c2ccc(-c3cc(-c4cc5c(cc4F)C(=O)NCC5)c(N)nc3F)cc2)CC1` [I-296, 6-(2-amino-5-(4-(1-ethyl-1,2,3,6-tetrahydropyridin-4-yl)phenyl)-6-fluoropyridin-3-yl)-7-fluoro-3,4-dihydroisoquinolin-1(2H)-one]: the IC50 in test [1] was 0.1 to 10 nM; on Lck (h), more than 1000 nM.

Take `Nc1nc(F)c(-c2ccc(C3=CCN(CC4CC4)CC3)cc2)cc1-c1cc2c(cc1F)C(=O)NCC2` [I-297, 6-(2-amino-5-(4-(1-(cyclopropylmethyl)-1,2,3,6-tetrahydropyridin-4-yl)phenyl)-6-fluoropyridin-3-yl)-7-fluoro-3,4-dihydroisoquinolin-1(2H)-one]: the results for the IC50 (in test [1]; on Lck (h)) were 0.1 to 10 nM and more than 1000 nM, respectively.

For `CNCC1Cc2cc(-c3cc(-c4ccc(Cl)cc4)c(F)nc3N)ccc2C(=O)N1` (centres unmarked) [I-298, 6-(2-amino-5-(4-chlorophenyl)-6-fluoropyridin-3-yl)-3-((methylamino)methyl)-3,4-dihydroisoquinolin-1(2H)-one], the figures for the 50% inhibitory concentration (IC50) (in test [1]; on Lck (h)) were 11 to 100 nM and more than 1000 nM, respectively.

`CC(C)N1CCc2cc(-c3cc(-c4cc5c(cc4F)C(=O)NCC5)c(N)nc3F)ccc2C1` [I-299, 6-(2-amino-6-fluoro-5-(2-isopropyl-1,2,3,4-tetrahydroisoquinolin-6-yl)pyridin-3-yl)-7-fluoro-3,4-dihydroisoquinolin-1(2H)-one]: the IC50 is 0.1 to 10 nM in test [1] and more than 1000 nM at Lck (h).

Consider `COCCN1CCc2cc(-c3cc(-c4cc5c(cc4F)C(=O)NCC5)c(N)nc3F)ccc2C1` [I-300, 6-(2-amino-6-fluoro-5-(2-(2-methoxyethyl)-1,2,3,4-tetrahydroisoquinolin-6-yl)pyridin-3-yl)-7-fluoro-3,4-dihydroisoquinolin-1(2H)-one], for which the IC50 in test [1] was 0.1 to 10 nM; at Lck (h), more than 1000 nM.

For the compound `CC(C)N1C[C@H]2C[C@@]2(c2ccc(-c3cc(-c4cc(F)c5c(c4)CCNC5=O)c(N)nc3F)cc2)C1` [I-301, 6-(2-amino-6-fluoro-5-(4-((1R,5S)-3-isopropyl-3-azabicyclo[3.1.0]hexan-1-yl)phenyl)pyridin-3-yl)-8-fluoro-3,4-dihydroisoquinolin-1(2H)-one], the values for the IC50 (in test [1]; on Lck (h)) were 0.1 to 10 nM and more than 1000 nM, respectively.

On to `CC(C)N1CCC(c2ccc(-c3cc(-c4cc(F)c5c(c4)CCNC5=O)c(N)nc3F)cc2)CC1` [I-302, 6-(2-amino-6-fluoro-5-(4-(1-isopropylpiperidin-4-yl)phenyl)pyridin-3-yl)-8-fluoro-3,4-dihydroisoquinolin-1(2H)-one], for which the results for the IC50 (in test [1]; on Lck (h)) were 0.1 to 10 nM and 101 to 1000 nM, respectively.

The IC50 is the concentration at which inhibition is half-maximal.
